Experimental data published in patent US10934346B2, “Modified T cell comprising a polynucleotide encoding an inducible stimulating molecule comprising MyD88, CD40 and FKBP12” (priority 2014, dated 2021).
Read-outs that look alike come from different tables or passages of the source.

Assays:
primary T cells = assay: Activation of primary T cells with iMyD88, iCD40 or iMC after AP1903 (cytokine ELISA); conditions: iMC
Experimental: To examine whether MyD88, CD40 or both molecules should be included as endodomains in potential chimeric antigen receptor constructs, four distinct vectors were designed containing the AP1903-binding domains only (Fv′Fv), or genetically fused with MyD88 (iMyD88), CD40 (iCD40) or with both MyD88 and CD40 (iMC) (FIG. 41a). […] The ability of iMyD88, iCD40 or iMC to activate T cells following exposure to AP1903 by measuring IFN-γ and IL-6 production by ELISA was then assayed.
A set of experiments was performed to examine whether MyD88, CD40 or both components were required for optimum T cell stimulation using the iMC molecule.

Capan-1 tumor = Capan-1 tumor xenograft in NSG mice with T cell bioluminescence imaging; type: in vivo
Experimental: FIG. 3A) Shorn mice were engrafted with Capan-1 tumor cells and treated with PSCA.ζ CAR T cells cotransduced with control vector or iMC, or non-transduced T cells, and injected i.v. on days 7 and 14. Exogenous IL-2 was given i.p. until day 21 and then withdrawn. All mice received 5 mg/kg rimiducid i.p. twice per week (biw). Tumor size was measured by calipers (FIG. 3B) and survival assessed over a 100-day period (FIG. 3C). FIG. 3D) to measure in vivo CAR T cell persistence and expansion, NSG mice were used. Mice were injected s.c. with Capan-1 tumor cells and then treated with non-transduced (NT) or FKBP and PSCA.ζ-modified T cells or iMC and PSCA.ζ-modified T cells. Mice treated with iMC-enabled T cells received 2.5 mg/kg rimiducid once (qw), twice weekly (biw) or saline only via i.p. injection. FIG. 3E) Subcutaneous tumor size was measured by calipers over a 30 day period.
FIG. 3F) In vivo bioluminescence imaging was performed on mice treated with iMC-transduced T cells receiving saline only, or with systemic rimiducid administration. […]
In vivo studies. […] Tumors were measured by calipers and tumor size calculated. […] Photon emission was analyzed by constant region-of-interest (ROI) drawn over the tumor region and the signal measured as total counts as previously validated^10. As above, efficacy was assessed by measuring tumors using calipers. […]

[1] = test system: T cells transduced with RV-172 (iMC); assay: AP1903-induced T cell activation, 27-plex cytokine/chemokine bead array; type: cell-based, human; conditions: 10 nM AP1903, 24 hours, RV-172 T cells
Experimental: 5. To assess AP1903-dependent T cell activation of T cells, 1×10^5 non-transduced (NT) or T cells transduced with the control retrovirus (RV-171) or the retrovirus containing iMC (RV-172) were plated in triplicate in 96-well plates and cultured at 37° C. 5% CO2 with media alone, or media containing 10 nM AP1903. 6. After 24 hours, the cells were gently mixed and the plate was centrifuged. Supernatant was then collected and plated into a BIOPLEX Human Cytokine/Chemokine 27-plex plate, which measures the following cytokines and chemokines: • a. Basic-FGF, G-CSF, GM-CSF, IFN-gamma, IL-1Ra, IL-1beta, IL-2, IL-4, IL-5, IL-6, […], IL-7, […], IL-9, IL-10, IL-12p70, IL-13, IL-15, IL-17RA, eotaxin, IP10, MCP-1, MIP-1alpha, MIP-1beta, PDGF-bb, RANTES, TNF-alpha and VEGF. • b. The cytokines and chemokines in the supernatants were subsequently measured and compared to standards in the plate using a BIOPLEX MAGPIX Multiplex Reader.
T cells were stimulated with 10 nM AP1903 for 24 hours then supernatants were assayed for cytokine levels.

B16-F10 melanoma cells = assay: IL-6 ELISA of adenovirus-transduced B16-F10 melanoma cells with AP1903; type: cell-based
Experimental: Adenoviruses were added at 1000, 2000, 4000, 8000 and 16000 virus/cell ratio and cells were incubated for 24 hours. Then, 100 nM of AP1903 was added to all the wells, and the following day the cells and culture supernatants were harvested. A. Cells were labeled with anti-human PSMA antibody, LNI-17, (Biolegend, San Diego, Calif.) and PSMA expression was analyzed by flow cytometry. Represented is the percentage of PSMA^+ cells when compared to non-transduced cells. B. IL-6 was evaluated from the culture supernatants by ELISA (e-Bioscience, San Diego, Calif.). FIG. 28 provides the results of the assay at a different multiplicity of infection and plating concentration. B16 melanomas were cultured at 50,000 cells/ml/well in 24-well plates. Adenoviruses were added at 6000, 12000, 18000, 24000 and 30000 virus/cell ratio and cells were incubated for 24 hours. Then, 100 nM of AP1903 was added to all the wells, and the following day the cells and culture supernatants were harvested. A. Cells were labeled with anti-human PSMA antibody, LNI-17, (Biolegend, San Diego, Calif.) and PSMA expression was analyzed by flow cytometry. Represented is the percentage of PSMA^+ cells when compared to non-transduced cells. B. IL-6 was evaluated from the culture supernatants by ELISA (e-Bioscience, San Diego, Calif.). […] IL-6 was evaluated from the culture supernatants by ELISA (e-Bioscience, San Diego, Calif.)

[2] = cited from earlier work

## CC[C@H](C(=O)N1CCCC[C@H]1C(=O)O[C@H](CCc1ccc(OC)c(OC)c1)c1cccc(OCC(=O)NCCNC(=O)COc2cccc([C@@H](CCc3ccc(OC)c(OC)c3)OC(=O)[C@@H]3CCCCN3C(=O)[C@@H](CC)c3cc(OC)c(OC)c(OC)c3)c2)c1)c1cc(OC)c(OC)c(OC)c1 (relative stereo) [rimiducid, 2-Piperidinecarboxylic acid, 1-[(2S)-1-oxo-2-(3,4,5-trimethoxyphenyl)butyl]-, 1,2-ethanediylbis [imino(2-oxo-2,1-ethanediyl)oxy-3,1-phenylene[(1R)-3-(3,4-Dimethoxyphenyl)propylidene]] ester, [2S-[1(R*),2R*[S*[S*[1(R*),2R*]]]]]-(9Cl)]
Primary T cells
  IL-1 secretion: IL-1a and β are secreted
Capan-1 tumor; rimiducid 2.5 mg/kg once or twice weekly, iMC and PSCA.ζ T cells
  tumor control: enabled enhanced tumor control
Capan-1 tumor; systemically and at the subcutaneous tumor site
  T cell bioluminescence (BLI): dramatic increase in T cell BLI
[1]
  cytokines and chemokines induced: GM-CSF, IFN-gamma, IL-13, IL-4, IL-5, IL-6, IL-8, IL-1beta, IL-12p70, IP10, MIP-1alpha, MIP-1beta, RANTES, and TNF-alpha
  cytokines and chemokines not induced: Basic-FGF, G-CSF, IL-1Ra, IL-2, IL-7, IL-9, IL-10, IL-15, IL-17RA, eotaxin, MCP-1, PDGF-bb and VEGF
B16-F10 melanoma cells; 100 nM AP1903
  IL-6 production: response to AP1903 by producing IL-6
B16-F10 melanoma cells; presence and absence of AP1903
  IL-6 production without ligand: transduced cells produce IL-6 without the addition of AP1903
[2]; 0.01, 0.05, 0.1, 0.5 and 1.0 mg/kg
  plasma levels versus dose: directly proportional to dose
[2]; 0.5 hours post-dose
  plasma level as % of maximal concentration: approximately 18%
[2]; 2 hours post-dose
  plasma level as % of maximal concentration: ~7%
[2]; 10 hours post-dose
  plasma level as % of maximal concentration: ~1%
[2]; Phase I study
  well-tolerated doses: up to 1 mg/kg
[2]; plasma, over the 0.01-1.0 mg/kg dose range, infused IV over 2 hours
  mean Cmax: 10 to 1275 ng/mL
